# Test results: patent US20040058974A1, “Treating fungal infections” (SCHERING CORPORATION, priority 2002, published 2004)
# “Also recorded” adds a separate entry of the source. Like-named read-outs stand apart in the source and are kept apart here.
# Legend:
# [1] = Open-label 3-way crossover clinical pharmacology study: plasma posaconazole pharmacokinetics in fasted healthy subjects (observed values and one-compartment model); format: in vivo, human; details: for bioavailability / Tmax / Cmax / Mean Cmin (SD) 48 hours after the initial dose / Increase in bioavailability vs regimen A / Change of estimated AUC(I) relative to regimen A: fasted; for bioavailability: model estimate (SE); for AUC(0-t): read-out: Steady-state AUC(0-24 hr); for Cmax: read-out: Mean Cmax (SD)
# Source text: Men and women, 18 to 45 years of age were recruited for the clinical pharmacology study. Subjects were required to be of normal body weight (within 15% of ideal body weight) and generally in good health. Inclusion criteria included normal electrocardiogram (ECG) and laboratory test results, along with negative drug and pregnancy screens; nonlactating women of childbearing potential were required to use a barrier method of contraception during the study. Exclusion criteria included substance abuse or significant food or drug allergy, donation of blood or use of an investigational drug during the previous 90 days, use of any prescription or over-the-counter drugs other than acetaminophen in the previous 2 weeks, or use of alcohol during the previous 48 hours. Also excluded were subjects with a positive HIV, hepatitis B, or hepatitis C test, as were subjects with is a clinically significant systemic infection during the previous 4 weeks. Subjects who smoked ≧10 cigarettes daily were also excluded. This was an open-label, 3-way crossover study. Subjects who met the entry criteria were confined to the study center at least 12 hours prior to dosing and 48 hours after each dosing regimen. Subjects were discharged from the study site for a 1-week washout period between each arm of the study. Following an overnight fast, each subject received posaconazole as an oral suspension (40 mg/mL), using one of 3 dosing regimens: a single dose of 800 mg (regimen A); 2 doses of 400 mg given 12 hours apart (regimen B); or 4 doses of 200 mg given 6 hours apart (regimen C). Subjects were randomly assigned using a computer-generated random code to 1 of 6 treatment schedules (ABC, ACB, BAC, BCA, CAB, CBA). The oral posaconazole suspension was manufactured and supplied by Schering-Plough Research Institute, Kenilworth, N.J., USA. After dosing with an oral dosing syringe, the oral cavity was inspected to ensure that the subject had swallowed the suspension. Subjects remained fasted for 24 hours after the initial dose. During the first 14 hours, water was provided ad libitum and subjects received IV 1,400 mL D5W/0.5 normal saline at approximately 100 mL/hr as a calorie and fluid source. For regimen A, B, and C, blood samples were collected in heparin-containing tubes at baseline (0 hr) and at 2, 4, 5, 6, 8, 10, 12, 16, 24, and 48 hours after the first dose. For regimen B, blood samples were additionally collected at 14, 17, 18, 20, and 22 hours after the first dose. For regimen C, additional blood samples were collected at 11, 14, 17, 18, 20, 22, 23, 26, 28, and 36 hours after the first dose. Each sample was centrifuged within 15 minutes after collection for 10 minutes at 4° C. and 1,500 g. The resultant plasma was frozen (−20° C.) until assayed. Plasma posaconazole concentrations were quantified using a validated high-performance liquid chromatographic (HPLC) assay with a lower limit of quantitation (LOQ) of 5 ng/mL and a linear range of 5.0 to 5000 ng/mL. The observed values were the maximum plasma concentration (Cmax), time of maximum plasma concentration (Tmax), and the trough plasma concentration at 48 hours after the initial dose of posaconazole (Cmin). Based on previous experience in modeling concentration-time posaconazole data and goodness of fit criteria, a one-compartment oral model with a first-order rate of absorption and first-order rate of elimination was used. The intra-subject error was assumed to be additive, defined as, where Ci,j(t) and Gi,j(t) were the measured and predicted concentrations, respectively, for the j^th subject at time t under the i^th regimen. The predicted concentrations Gi,j(t) following treatments B and C were calculated using the principle of superpositioning, with a lag time equal to the dosing interval (B: 12 hours; C: 6 hours). The error term εi,j(t) was assumed to be N(0, σ^2 ε). Differences in exposure following the three dosage regimens were explored by allowing the bioavailability fraction (F) to differ between regimens. […]
# [2] = Safety and tolerability in the 3-way crossover study (adverse events, vital signs, ECGs, laboratory tests); format: in vivo, human
# Method: Physical examinations, vital signs, ECGs, and clinical laboratory tests were conducted at screening and at the end of the study (48 hours after the final dosing regimen). Treatment-emergent adverse events were recorded throughout the study. In addition, vital signs were evaluated prior to drug administration and at 24 and 48 hours after the first dose of each regimen.
# [3] = Posaconazole pharmacokinetics in bone marrow transplant (BMT) patients, 200 mg q6h for up to 25 days; format: in vivo, human
# Method: The exposures in the fasted healthy volunteers were confirmed in a study of posaconazole pharmacokinetics in bone marrow transplant (BMT) patients.
# Upon extrapolation of model parameters to multiple dosing, the population mean AUC(0-24 hr) value following oral administration of 200 mg of posaconazole four times a day, preferably q 6 hr was estimated to be 12.4 mcg·hr/mL, representing an average plasma concentration of 0.5 mcg/mL. These estimates, based on data from healthy fasted volunteers, are in close agreement with pharmacokinetic data obtained from a study of patients undergoing high-dose chemotherapy and a bone marrow transplant who were orally administered posaconazole 200 mg q6 h for up to 25 days. […] These studies combined with other data form the basis for posaconazole dosing regimens in the clinical efficacy trials for posaconazole.
# [4] = single daily dose; cited from earlier work
# [5] = test system: Candida species (including albicans, glabrata, and tropicalis), as well as other opportunistic fungi; details: in vitro and in vivo studies; cited from earlier work
# [6] = given with food, rising single dose; cited from earlier work
# [7] = 200 mg four times a day, model extrapolated to multiple dosing, healthy fasted volunteers
compound,measurement,setting,value
CC[C@@H]([C@H](C)O)n1ncn(-c2ccc(N3CCN(c4ccc(OC[C@@H]5CO[C@@](Cn6cncn6)(c6ccc(F)cc6F)C5)cc4)CC3)cc2)c1=O [posaconazole],Average posaconazole plasma concentration,[1]; 200 mg QID oral,greater than 500 ng/mL
same,Average plasma concentration,[1]; [7],0.5 µg/mL
same,Population mean AUC(0-24 hr),[1]; [7],12400 ng·h/mL
same,Average posaconazole plasma concentration,[1]; 400 mg BID oral,greater than 300 ng/mL
same,"Absorption constant, Ka, estimate","[1]; Table 1, one-compartment model",0.197 h⁻¹
same,"Elimination constant, Ke, estimate","[1]; Table 1, one-compartment model",0.045 h⁻¹
same,bioavailability,"[1]; both sexes, human, plasma, oral, 200 mg QID vs 800 mg QD, read-out: Bioavailability fraction F3, regimen C relative to regimen A",320 ± 70%
same,Tmax,"[1]; both sexes, human, plasma, oral, 200 mg, regimen C: 200 mg every 6 h, read-out: Mean Tmax (SD) after the initial dose",24.2 h
same,Tmax,"[1]; both sexes, human, plasma, oral, 200 mg, regimen C: 200 mg every 6 h, read-out: Tmax after the final dose",6.2 h
same,bioavailability,"[1]; both sexes, human, plasma, oral, 400 mg BID vs 800 mg QD, read-out: Bioavailability fraction F2, regimen B relative to regimen A",198 ± 35%
same,Tmax,"[1]; both sexes, human, plasma, oral, 400 mg, regimen B: 400 mg every 12 h, read-out: Mean Tmax (SD) after the initial dose",16.6 h
same,Tmax,"[1]; both sexes, human, plasma, oral, 400 mg, regimen B: 400 mg every 12 h, read-out: Tmax after the final dose",4.6 h
same,Tmax,"[1]; both sexes, human, plasma, oral, 800 mg, regimen A: 800 mg single dose, read-out: Mean Tmax (SD) after the initial dose",7.8 h
same,Tmax,"[1]; both sexes, human, plasma, oral, 800 mg, regimen A: 800 mg single dose, read-out: Tmax after the final dose",7.8 h
same,half-life,"[1]; both sexes, human, plasma, oral, from absorption rate constant, fasting conditions, read-out: Estimated absorption half-life (converted)",3.5 h
same,half-life,"[1]; both sexes, human, plasma, oral, from elimination rate constant, read-out: Estimated terminal elimination half-life (converted)",15 h
same,AUC,"[1]; both sexes, human, plasma, oral, 200 mg QID, fasted healthy subjects, read-out: AUC (exposure)",~12000 ng·h/mL
same,Vd/F,"[1]; both sexes, human, plasma, oral, one-compartment model, read-out: V/F1 (volume of distribution) estimate",4580 L
same,AUC(0-t),"[1]; both sexes, human, plasma, oral, regimen A 800 mg QD, model extrapolated to multiple dosing",3900 ng·h/mL
same,AUC(0-t),"[1]; both sexes, human, plasma, oral, regimen B 400 mg BID, model extrapolated to multiple dosing",7700 ng·h/mL
same,Cmax,"[1]; both sexes, human, plasma, oral, regimen B: 400 mg every 12 h (2 doses)",225 ng/mL
same,AUC(0-t),"[1]; both sexes, human, plasma, oral, regimen C 200 mg QID, model extrapolated to multiple dosing",12400 ng·h/mL
same,Cmax,"[1]; both sexes, human, plasma, oral, regimen C: 200 mg every 6 h (4 doses)",405 ng/mL
same,Cmax,"[1]; both sexes, human, plasma, regimen A: 800 mg single oral dose",137 ng/mL
same,Dose at which oral absorption is saturable,"[1]; fasted subjects, suggested by concentration-time curves",200 mg
same,Elimination rate constant,"[1]; one-compartment model, all regimens",0.045 h⁻¹
same,Absorption rate constant,"[1]; one-compartment model, fasting conditions, all regimens",0.197 h⁻¹
same,F1 (Regimen A) bioavailability fraction,"[1]; reference, fixed equal to 1, 800 mg single dose",1.0
same,Estimated steady-state average concentration,"[1]; regimen A 800 mg QD, model extrapolated to multiple dosing",162 ng/mL
same,Mean Cmin (SD) 48 hours after the initial dose,[1]; regimen A: 800 mg single dose,50 (+/−26) ng/mL
same,Increase in bioavailability vs regimen A,[1]; regimen B 400 mg BID vs 800 mg single dose,98%
same,Estimated steady-state average concentration,"[1]; regimen B 400 mg BID, model extrapolated to multiple dosing",320 ng/mL
same,Change of estimated AUC(I) relative to regimen A,[1]; regimen B 400 mg every 12 h,doubled
same,Mean Cmin (SD) 48 hours after the initial dose,[1]; regimen B: 400 mg every 12 h,96 (+/−46) ng/mL
same,Increase in bioavailability vs regimen A,[1]; regimen C 200 mg QID vs 800 mg single dose,220%
same,Estimated steady-state average concentration,"[1]; regimen C 200 mg QID, model extrapolated to multiple dosing",517 ng/mL
same,Change of estimated AUC(I) relative to regimen A,[1]; regimen C 200 mg every 6 h,tripled
same,Mean Cmin (SD) 48 hours after the initial dose,[1]; regimen C: 200 mg every 6 h,189 (+/−135) ng/mL
same,Subjects reporting at least 1 adverse event,"[2]; 18 subjects, all regimens",33%
same,"Changes in vital signs, physical examinations, laboratory values, ECGs",[2]; all regimens,no clinically significant changes; also recorded: unchanged relative to baseline
same,Intensity of adverse events,[2]; all regimens,mild in intensity
same,Subjects reporting chest pain,[2]; regimen C,11%
same,Subjects reporting headache,[2]; regimens A and B,11%
same,Safety and tolerability,"[2]; total daily dose 800 mg, regardless of dosing regimen",safe and well tolerated
same,Average steady-state plasma concentration,"[3]; 200 mg q6h for up to 25 days, high-dose chemotherapy and bone marrow transplant patients",0.428 µg/mL
same,AUC,"[3]; human, plasma, oral, 200 mg QID, BMT patients, read-out: AUC (exposure)",~11000 ng·h/mL
same,AUC(0-t),"[3]; human, plasma, oral, 200 mg q6h for up to 25 days, high-dose chemotherapy and bone marrow transplant patients, read-out: AUC(0-24 hr) at steady state",10600 ng·h/mL
same,Increase in oral bioavailability with a high fat meal compared to the fasted state,[4],approximately 4 fold
same,Antifungal activity,[5],good activity
same,Doses at which absorption saturated,[6],above 800 mg
